Measured values reported in PubChem BioAssay (NCI).
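Cultured in 96-well plates, cells were exposed to test compound for 48 hours across five concentrations. At the TGI there is no net growth.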 Where a SMILES comes first, the peptide text is derived from it. [ ]: non-standard residue; d: D form. The star is where a group is joined. Boc = CC(C)(C)OC(=O)*; Lac = C[CH](O)C(=O)O; OBn = c1ccc(CO*)cc1

What was measured:
Assay in all cases: NCI anticancer screen, dose series, 48 h
CAKI-1 renal = tested on: CAKI-1 renal
SK-MEL-28 melanoma = tested on: SK-MEL-28 melanoma
SN12C renal = tested on: SN12C renal
PC-3 prostate = tested on: PC-3 prostate
HS 578T breast = tested on: HS 578T breast
MOLT-4 leukemia = tested on: MOLT-4 leukemia
OVCAR-8 ovarian = tested on: OVCAR-8 ovarian
SF-295 CNS = tested on: SF-295 CNS
M14 melanoma = tested on: M14 melanoma
HCC-2998 colon = tested on: HCC-2998 colon
NCI-H460 lung = tested on: NCI-H460 lung
NCI-H522 lung = tested on: NCI-H522 lung
U251 CNS = tested on: U251 CNS
UO-31 renal = tested on: UO-31 renal
HOP-92 NSCLC = tested on: HOP-92 NSCLC
SNB-19 CNS = tested on: SNB-19 CNS
HL-60(TB) leukemia = tested on: HL-60(TB) leukemia
COLO 205 colon = tested on: COLO 205 colon
SK-MEL-2 melanoma = tested on: SK-MEL-2 melanoma
RXF 393 renal = tested on: RXF 393 renal

Measured: TGI

NC(CCCCCCCCCCP(=O)(O)O)C(=O)O (stereo not given)
> 100 µM: all assays above

CC(OC(=O)C(Cc1ccccc1)NC(=O)C(Cc1ccccc1)NC(=O)OC(C)(C)C)C(=O)OCc1ccccc1 (stereo not drawn) (Boc-Phe-Phe-[Lac]-OBn; configuration not given here)
> 100 µM: all assays above
